Data: PubChem BioAssay (NCI)
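96-well plates; 48 h exposure; 5 concentrations. Endpoints by linear interpolation between flanking doses. Not reached: highest tested concentration assigned. The concentration for 50% growth inhibition is given as GI50. TGI denotes the concentration required for complete inhibition of growth.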 *1 amine or outer side, *2 acyl side, *3 side chain or, on linkers, in order; H or OH if unused. Where a SMILES comes first, the peptide text is derived from it. [ ]: non-standard residue; d: D form. The star is where a group is joined. X32 = C[C@H](N[*:1])C(=O)C(C)(C)C(=O)[*:2]; Hmpa(2S,3S) = CC[C@H](C)[C@H](O)C(=O)O; NMeY = CN[C@@H](Cc1ccc(O)cc1)C(=O)O; NMeL = CN[C@@H](CC(C)C)C(=O)O; NMeV = CN[C@H](C(=O)O)C(C)C; Boc = CC(C)(C)OC(=O)*; βAla = NCCC(=O)O

Experiments:
Assay in all cases: inhibition of tumour cell growth, NCI panel, 48 h
ACHN renal = test system: ACHN renal
IGROV1 ovarian = test system: IGROV1 ovarian
SF-295 CNS = test system: SF-295 CNS
SK-MEL-5 melanoma = test system: SK-MEL-5 melanoma

| Structure (SMILES) | TGI (ACHN renal) | TGI (IGROV1 ovarian) | TGI (SF-295 CNS) | TGI (SK-MEL-5 melanoma) | GI50 (ACHN renal) | GI50 (IGROV1 ovarian) | GI50 (SF-295 CNS) |
| --- | --- | --- | --- | --- | --- | --- | --- |
| NC(=S)N/N=C\c1nccc2ccccc12 | 0.317 µM | 17.4 µM | 0.781 µM | 3.7 µM | – | – | – |
| O=C(NCCCCCCNC(=O)c1cc(-c2ccccc2)nc2ccccc12)c1cc(-c2ccccc2)nc2ccccc12 | > 100 µM | > 100 µM | > 100 µM | > 100 µM | – | – | – |
| CC(C)/C(Cl)=N\OC(=O)Nc1cccc(Cl)c1 | 18.4 µM | 35 µM | > 58.9 µM | 26.6 µM | – | – | – |
| C=C(Br)CNC(=O)CCC(=O)NCC(=C)Br | > 100 µM | > 100 µM | > 100 µM | > 100 µM | – | – | – |
| Cc1ccc(NC(=O)c2cc(S(=O)(=O)Nc3nc4ncccc4[nH]3)c(SSc3cc(Cl)c(C(=O)Nc4ccc(C)cc4)cc3S(=O)(=O)Nc3nc4ncccc4[nH]3)cc2Cl)cc1 | > 100 µM | > 100 µM | > 100 µM | > 100 µM | – | – | – |
| C=C1C2C[C@@H]3O[C@H]4C[C@H]5O[C@@]6(C[C@@H]7O[C@]8(C[C@H](C)[C@@H]9O[C@@H]%10CC(CO)O[C@@H]%10C[C@@H]9O8)C[C@H](C)[C@@H]7O6)C[C@H]5O[C@H]4[C@H](C)[C@H]3OC(=O)C[C@H]3CC[C@@H]4OC5[C@H]6O[C@]7(CC[C@H]8CC(=C)[C@H](CC[C@@H](C[C@H]1C)O2)O8)CC6O[C@@H]5[C@@H](O7)[C@H]4O3 (some centres undefined) | > 1 µM | > 1 µM | > 1 µM | 0.00332 µM | – | – | – |
| CC(=O)Nc1ccc(C2SCc3nc4ccccc4n32)cc1 (centres undefined) | > 100 µM | > 100 µM | > 100 µM | > 100 µM | – | – | – |
| Cc1ccccc1S(=O)(=O)Nn1cnc2ccc(S(=O)(=O)Nc3ccc(Cl)cc3)cc2c1=O | > 100 µM | > 100 µM | > 100 µM | – | – | – | – |
| CC(=O)O[C@H]1[C@H](OC(=O)CC(C)(O)CC(=O)O)C[C@]2(C)C3=C(CCC2C1(C)C)[C@]1(C)CC[C@H]([C@H]2CC[C@H](C(C)(C)O)OC2O)[C@@]1(C)[C@@H](O)C3 (some centres undefined) | 31.2 µM | 30.8 µM | 33.9 µM | 30.9 µM | – | – | – |
| CCC(=O)Nc1ccc(N2C(=O)C(Cl)C2c2ccc(SC)cc2)cc1 (centres undefined) | > 100 µM | > 100 µM | > 100 µM | 79.8 µM | – | – | – |
| N#Cc1ccc(-n2c3ccccc3c3ccc4c(c32)C(=O)C=CC4=O)cc1 | 3.01 µM | 16.2 µM | 28.2 µM | 12.2 µM | – | – | – |
| CC[C@H](C)[C@@H]1OC(=O)CCNC(=O)[C@@H](C)NC(=O)C(C)(C)C(=O)[C@H](C)NC(=O)[C@H](Cc2ccc(OC)cc2)N(C)C(=O)[C@H](C(C)C)N(C)C(=O)CNC(=O)[C@H](CC(C)C)N(C)C(=O)CNC1=O (cyclo(G[NMeL]G[NMeV][NMeY](Me)[X32][dA][βAla][Hmpa(2S,3S)])) | > 38 µM | 4.16 µM | 24.3 µM | 0.228 µM | – | – | – |
| Cc1ccnc(NC(NC(=O)c2ccccc2)(C(F)(F)F)C(F)(F)F)c1 | > 100 µM | > 100 µM | > 100 µM | > 100 µM | – | – | – |
| CC(=O)Nc1c(C)cc2c(nc3n2CCC3O)c1[N+](=O)[O-] (centres undefined) | > 100 µM | > 100 µM | > 100 µM | > 100 µM | – | – | – |
| C[C@@H]1CC[C@@H]2[C@@H](C1)O[C@@H]([C@H](C)OCc1ccccc1)SC2(C)C | 37.2 µM | > 100 µM | 34.5 µM | 33 µM | – | – | – |
| OCCNCNc1nc(NCNCCO)nc(N(CNCCO)CNCCO)n1 | > 68.9 µM | 49.4 µM | > 61.6 µM | 28.5 µM | – | – | – |

| Structure (SMILES) | TGI (ACHN renal) | TGI (IGROV1 ovarian) | TGI (SF-295 CNS) | TGI (SK-MEL-5 melanoma) | GI50 (ACHN renal) | GI50 (IGROV1 ovarian) | GI50 (SF-295 CNS) |
| --- | --- | --- | --- | --- | --- | --- | --- |
| CCOC(=O)NC(Nc1ccc(C(=O)OCC)cc1)(C(F)(F)F)C(F)(F)F | > 100 µM | > 100 µM | > 100 µM | > 100 µM | – | – | – |
| N#Cc1cnc(N)nc1NCC1(CO)CC(CCc2ccccc2)C1 (centres undefined) | > 100 µM | > 100 µM | > 100 µM | > 100 µM | – | – | – |
| COC(=O)C(Cc1c[nH]c2ccccc12)NC(=O)C(Cc1c[nH]c2ccccc12)NC(=O)C(Cc1c[nH]c2ccccc12)NC(=O)C(Cc1c[nH]c2ccccc12)NC(=O)C(Cc1c[nH]c2ccccc12)NC(=O)C(Cc1c[nH]c2ccccc12)NC(=O)C(Cc1c[nH]c2ccccc12)NC(=O)C(Cc1c[nH]c2ccccc12)NC(=O)OC(C)(C)C (centres undefined) (Boc-WWWWWWWW-OMe; configuration not given here) | > 100 µM | > 100 µM | – | 73.3 µM | – | – | – |
| Cc1cc(S(=O)(=O)Nc2nc3ccccc3c(=O)n2N)c(S)cc1Cl | > 100 µM | > 100 µM | > 100 µM | > 100 µM | – | – | – |
| CO/N=C(\C)c1cccc(Nc2c3ccccc3nc3occc23)c1 | – | 19.4 µM | 18.4 µM | 19.1 µM | – | – | – |
| O=c1/c(=C/c2ccc(-c3ccc(Cl)cc3Cl)o2)sc2n1[C@@H](c1ccc(Cl)cc1)C=C(c1cc(F)c(Cl)cc1Cl)N=2 | > 100 µM | > 100 µM | > 100 µM | > 100 µM | – | – | – |
| C=CC(Cl)(CBr)CCC(Br)C(C)(C)Cl (centres undefined) | 38.2 µM | 26.3 µM | 28.8 µM | 25.8 µM | – | – | – |
| CCC(C#N)NCc1cccc(CNC(C#N)CC)c1 (centres undefined) | > 100 µM | > 100 µM | 33.7 µM | > 100 µM | – | – | – |
| CCCCCCCCCCNC(=O)CCC(NC(=O)c1ccc(N(C)Cc2cnc3nc(N)nc(N)c3n2)cc1)C(=O)NCCCCCCCCCC (centres undefined) | > 100 µM | 20.1 µM | > 100 µM | 12.6 µM | – | – | – |
| COCN1C(=O)[C@@H]2CCCN2C(=O)c2cc(N)ccc21 | > 100 µM | > 100 µM | > 100 µM | – | – | – | – |
| O=[N+]([O-])c1ccc(N/N=C/c2ccc(OCCCCCCCCCCCO)cc2)c([N+](=O)[O-])c1 | > 71.7 µM | 67.4 µM | 9.6 µM | 4.66 µM | – | – | – |
| N#Cc1c(N)nc(Sc2ccccc2N)c(C#N)c1-c1ccc(Cl)cc1 | 39.5 µM | 33.6 µM | 25.9 µM | > 55 µM | – | – | – |
| Oc1ccc2c(c1)-c1c(c3ccccc3n1CCN1CCOCC1)CC2 | 53.3 µM | > 100 µM | > 100 µM | > 100 µM | – | – | – |
| CC(=O)OCC1OC(n2c(-c3ccc(C)cc3)cc(-c3ccccc3)c(C#N)c2=S)C(OC(C)=O)C(OC(C)=O)C1OC(C)=O (centres undefined) | > 100 µM | > 100 µM | > 100 µM | > 100 µM | – | – | – |
| COc1cc(/C=c2\sc3n(c2=O)C(c2ccc(Cl)cc2)C2=C(CCCC2C)N=3)cc(OC)c1OC (centres undefined) | > 100 µM | > 100 µM | – | > 100 µM | – | – | – |
| COc1cc2c(cc1OCCCC(=O)Nc1ccc3ccc4cccc5ccc1c3c45)N=C[C@@H]1CCCN1C2=O | > 100 µM | – | 1.08 µM | – | 0.044 µM | < 0.0167 µM | 0.217 µM |
